The text below walks through data of US9067894B1, “Compound, composition, and method of activating GIRK potassium channel and use of same for treating conditions of interest” (Vanderbilt University, priority 2013, dated 2015).

Series [1] addresses T1, GIRK2 (Homo sapiens, UniProt P48051).
T1 construct: expressed in transfected cells; host or cells: HEK-293
T1 sequence (P48051 1-423): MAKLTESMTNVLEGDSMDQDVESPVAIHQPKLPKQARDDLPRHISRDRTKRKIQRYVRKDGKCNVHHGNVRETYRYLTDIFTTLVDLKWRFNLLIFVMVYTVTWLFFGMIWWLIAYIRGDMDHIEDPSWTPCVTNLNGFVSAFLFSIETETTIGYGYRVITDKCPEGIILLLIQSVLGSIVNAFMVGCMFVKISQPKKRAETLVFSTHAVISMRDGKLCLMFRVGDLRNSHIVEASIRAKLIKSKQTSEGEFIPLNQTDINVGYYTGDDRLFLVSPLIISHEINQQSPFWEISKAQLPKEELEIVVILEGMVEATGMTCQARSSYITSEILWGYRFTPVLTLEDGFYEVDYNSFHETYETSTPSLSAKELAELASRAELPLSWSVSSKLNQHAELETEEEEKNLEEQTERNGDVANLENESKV
Kind of series: Whole-cell voltage-clamp, GIRK2-expressing HEK-293 cells. The series is classed as cell-based. As to conditions: cell line GIRK2. An excerpt: Cell Line Construction and Cell Culture. HEK-293 cells co-expressing human GIRK1/2 and rat mGlu8 were generated as previously described (Niswender et al., 2008). A HEK-293 cell line (ATCC, Manassas, Va.) expressing human GIRK1 and human GIRK2 was constructed by transfecting HEK-293 cells with GIRK1 and GIRK2 (Origene, Rockville, Md.) cloned into the pBudCE4.1 vector (Life Technologies, Carlsbad, Calif.) using FuGene 6 (Promega, Madison, Wis.) transfection reagent. […]
A single-cell suspension of HEK-293 cells stably transfected with the appropriate ion channels were plated into TC-treated 35 mm polystyrene dishes at ˜15% confluence and incubated overnight in a 5% CO2 cell culture incubator at 37° C. […] Whole cell currents were recorded in 20K extracellular solution at −70 mV using a Pico 1 amplifier (Tecella, Foothill Ranch, Calif.) controlled by WINWCP 4.X (University of Strathclyde, Glasgow, Scotland, UK). […] One day after transfection, cells were plate into 35 mm polystyrene dishes, incubated and recorded as described above. […]
Voltage-clamp data were analyzed by converting current amplitudes to current density by dividing by each cell's membrane capacitance estimated from capacitance compensation. […]

Series [2] is described as follows: Ascending dose study in mice. It is filed as in vivo, mouse. As to conditions: mice, 10, 30, 60 mg/kg intraperitoneal. How it is done: To begin to assess […] pharmacodynamics properties, an ascending dose study (10, 30, 60 mg/kg, intraperitoneal injection) was performed in mice.
For series [3], the target named is T2, Adrenergic α1D (Homo sapiens, UniProt P25100).
T2 construct: Ricerca (contract assay)
T2 sequence (P25100 whole entry): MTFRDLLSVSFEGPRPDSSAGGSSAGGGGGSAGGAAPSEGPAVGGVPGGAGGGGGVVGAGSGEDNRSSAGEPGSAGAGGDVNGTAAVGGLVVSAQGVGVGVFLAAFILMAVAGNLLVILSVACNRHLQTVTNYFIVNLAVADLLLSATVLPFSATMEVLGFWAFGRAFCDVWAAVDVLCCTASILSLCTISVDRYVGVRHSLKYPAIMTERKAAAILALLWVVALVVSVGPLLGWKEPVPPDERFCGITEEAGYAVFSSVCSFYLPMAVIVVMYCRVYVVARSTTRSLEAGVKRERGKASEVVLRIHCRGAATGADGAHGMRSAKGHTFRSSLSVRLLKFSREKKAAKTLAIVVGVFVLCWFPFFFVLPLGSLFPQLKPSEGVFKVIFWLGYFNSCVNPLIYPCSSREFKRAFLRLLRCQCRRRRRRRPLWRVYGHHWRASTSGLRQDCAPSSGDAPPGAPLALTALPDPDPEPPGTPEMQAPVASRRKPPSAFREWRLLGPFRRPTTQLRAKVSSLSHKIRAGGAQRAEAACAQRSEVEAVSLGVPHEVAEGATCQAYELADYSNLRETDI
The experiment in a line: Radioligand displacement (Ricerca). The series is classed as binding.

In series [4] the test system is Glutamate (NMDA agonism). The experiment in a line: Radioligand displacement (Ricerca). As to conditions: 10 μM. The series is classed as binding, rat.
Series [5] concerns the target T3, Neuropeptide Y (Y1 ) (Homo sapiens, UniProt P25929).
T3 construct: Ricerca (contract laboratory that ran the panel)
Kind of series: Radioligand displacement (Ricerca). The series is classed as binding. For orientation: Loss of bound radioactivity is the signal in a displacement assay; it reports binding, not function.

Series [6] addresses T4, Serotonin 5-HT1A (Homo sapiens, UniProt P08908).
T4 construct: Ricerca (contract laboratory that ran the panel)
The experiment in a line: Radioligand displacement (Ricerca). The series is classed as binding.

Series [7] deals with T5, Transporter, GABA (Rattus norvegicus, UniProt P23978).
T5 construct: Ricerca (contract panel)
The experiment in a line: Radioligand displacement (Ricerca). It is filed as binding.

T3 sequence (P25929 whole entry): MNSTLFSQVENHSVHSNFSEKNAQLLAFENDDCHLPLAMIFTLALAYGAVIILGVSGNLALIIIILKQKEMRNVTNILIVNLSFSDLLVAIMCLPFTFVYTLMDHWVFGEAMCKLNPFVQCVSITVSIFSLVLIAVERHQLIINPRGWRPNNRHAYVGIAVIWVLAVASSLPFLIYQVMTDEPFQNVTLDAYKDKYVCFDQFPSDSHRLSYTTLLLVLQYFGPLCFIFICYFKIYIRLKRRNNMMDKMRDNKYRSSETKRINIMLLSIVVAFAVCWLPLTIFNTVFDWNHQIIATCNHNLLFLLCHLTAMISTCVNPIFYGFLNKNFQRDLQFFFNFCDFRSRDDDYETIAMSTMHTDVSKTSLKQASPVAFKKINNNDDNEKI
T4 sequence (P08908 whole entry): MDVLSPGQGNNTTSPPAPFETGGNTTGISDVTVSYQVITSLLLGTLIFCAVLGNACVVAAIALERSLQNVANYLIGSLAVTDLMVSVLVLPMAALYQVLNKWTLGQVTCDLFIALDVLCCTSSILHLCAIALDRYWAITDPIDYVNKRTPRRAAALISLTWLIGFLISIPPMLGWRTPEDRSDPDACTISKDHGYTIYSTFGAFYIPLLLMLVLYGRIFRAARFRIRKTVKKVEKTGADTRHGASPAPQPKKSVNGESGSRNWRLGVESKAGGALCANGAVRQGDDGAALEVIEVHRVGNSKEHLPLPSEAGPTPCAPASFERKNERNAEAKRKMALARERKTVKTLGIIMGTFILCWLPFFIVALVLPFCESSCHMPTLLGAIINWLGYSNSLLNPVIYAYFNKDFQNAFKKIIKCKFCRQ

As for `Cc1cc(NC(=O)Nc2ccc(F)c(F)c2)n(-c2ccccc2)n1` [VU0456810, 1-(3,4-difluorophenyl)-3-(3-methyl-1-phenyl-1H-pyrazol-5-yl)urea], the “EC50 Voltage Clamp” value in series [1] is “Inactive”. Also, the appearance of animals result in series [2] was “appeared normal and not under obvious distress”. Further, the inhibition (commonly the relative decrease from the control value, in per cent) at 10 µM is -3% in series [3], 24% in series [5], 0% in series [6] and 5% in series [7]. The % Inhibition (commonly how much of the control response was suppressed) in series [4] was determined as 21%.
